The text below walks through data of ChEMBL document CHEMBL1130658 (Bioorg Med Chem Lett, 1998).

In general, IC50 refers to the concentration that inhibits the measured activity by half. Low readings indicate greater potency in that assay, high ones weaker potency in that assay. Broadly, the inhibition is the share of the control response that was lost under treatment. The ED50 is the dose at which the effect has come halfway, by size or by number of responders. Lower therefore signals greater potency. What is called inhibition in vivo is the share of the control response that was lost under treatment.

Each structure is given as a SMILES string.

One series has as its target MAP kinase p38 (Homo sapiens, UniProt O15264+Q15759+Q16539+P53778). Description: Compound was tested for inhibition of p38 MAP kinase. The class given is protein assay.
For another series, the target named is CYP2D6 (Homo sapiens, UniProt P10635). Description: Percent inhibition of human hepatic cytochrome P450 2D6 at 10 uM. The class given is ADME.
For series [1], the species on record is Mus musculus. Description: Effective dose required to determine the oral activity in the mouse LPS-induced TNF alpha assay. The class given is functional.
In series [2] the test system is Mus musculus. Description: Effective dose required to determine the oral activity in the mouse LPS-induced TNF alpha assay at a dose of 50 mg/kg. The class given is functional.
Series [3] deals with Mus musculus. Description: Effective dose required to determine the oral activity in the mouse LPS-induced TNF alpha assay at a dose of 50 mg/Kg. The class given is functional.

Sequence of CYP2D6 (P10635 whole entry): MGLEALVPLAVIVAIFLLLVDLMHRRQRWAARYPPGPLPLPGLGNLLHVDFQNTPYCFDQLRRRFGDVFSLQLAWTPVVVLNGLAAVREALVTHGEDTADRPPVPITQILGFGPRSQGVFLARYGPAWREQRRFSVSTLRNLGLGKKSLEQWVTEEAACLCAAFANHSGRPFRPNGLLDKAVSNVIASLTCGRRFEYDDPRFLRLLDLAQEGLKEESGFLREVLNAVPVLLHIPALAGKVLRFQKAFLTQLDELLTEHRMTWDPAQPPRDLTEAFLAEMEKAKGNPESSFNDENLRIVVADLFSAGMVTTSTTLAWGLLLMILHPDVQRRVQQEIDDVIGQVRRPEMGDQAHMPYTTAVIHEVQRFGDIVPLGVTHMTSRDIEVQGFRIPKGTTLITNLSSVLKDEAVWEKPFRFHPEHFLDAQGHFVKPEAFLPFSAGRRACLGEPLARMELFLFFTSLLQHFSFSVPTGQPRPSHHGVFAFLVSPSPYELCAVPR

On to `CSc1nc(N)cc(-c2c(-c3ccc(F)cc3)ncn2CCCN2CCOCC2)n1`, for which, on MAP kinase p38, the concentration for half-maximal inhibition (IC50) was above 17 µM.
Take `CNc1nccc(-c2c(-c3ccc(F)cc3)ncn2CCCN2CCOCC2)n1`: on CYP2D6, testing at 10 µM gave an inhibition of 11%. This compound also had an IC50 against MAP kinase p38 of 1.9 µM. For the same compound, the ED50 in the series filed under Mus musculus [1] was 19 mg/kg.
At MAP kinase p38, `C[S+]([O-])c1nccc(-c2c(-c3ccc(F)cc3)ncn2CCCN2CCOCC2)n1` (stereo not drawn) gave a half-inhibitory concentration (IC50) of 2.2 µM. The same compound gave an inhibition in vivo at 50 mg/kg in the series on Mus musculus [2] of 37%.
As to `COc1cc(-c2c(-c3ccc(F)cc3)ncn2CCCN2CCOCC2)ncn1`, at MAP kinase p38, the IC50 is above 17 µM.
Compound `CSc1nccc(-c2c(-c3ccc(F)cc3)ncn2CCCN2CCOCC2)n1` registered an inhibition at 10 µM on CYP2D6 of 47%. In addition, the IC50 on MAP kinase p38 turned out to be 2 µM. Moreover, the ED50 in the series filed under Mus musculus [1] turned out to be 43 mg/kg.
For `Cc1cc(-c2c(-c3ccc(F)cc3)ncn2CCCN2CCOCC2)cc(C)n1`, on MAP kinase p38, the half-inhibitory concentration (IC50) was above 17 µM.
On CYP2D6, `COc1nccc(-c2c(-c3ccc(F)cc3)ncn2CCCN2CCOCC2)n1` registered an inhibition at 10 µM of 7%. In the series listed under Mus musculus [1], this compound yielded an ED50 of 14 mg/kg.
On to `Nc1nccc(-c2c(-c3ccc(F)cc3)ncn2CCCN2CCOCC2)n1`, for which at 10 µM the inhibition against CYP2D6 was 47%.
At CYP2D6, `Fc1ccc(-c2ncn(CCCN3CCOCC3)c2-c2ccncn2)cc1` had an inhibition at 10 µM of 34%. Also, in the series listed under Mus musculus [1], it took a dose of 12 mg/kg to reach the 50% effect level (ED50).
On to `Cc1nccc(-c2c(-c3ccc(F)cc3)ncn2CCCN2CCOCC2)n1`, for which, on CYP2D6, at 10 µM the inhibition was 19%. This compound displayed an IC50 at MAP kinase p38 of 1.3 µM. In the series on Mus musculus [3], this compound yielded an inhibition in vivo at 50 mg/kg of 65%.
On MAP kinase p38, `Cc1cc(-c2c(-c3ccc(F)cc3)ncn2CCCN2CCOCC2)nc(N)n1` had a half-inhibitory concentration (IC50) above 17 µM.
On the same count and under the same terms, for `CN(C)c1nccc(-c2c(-c3ccc(F)cc3)ncn2CCCN2CCOCC2)n1` the value was 3.6 µM.
On to `Cc1cc(-c2c(-c3ccc(F)cc3)ncn2CCCN2CCOCC2)ccn1`, for which, on CYP2D6, the inhibition at 10 µM was 51%. Also, the IC50 against MAP kinase p38 was found to be 2.1 µM. Besides, the inhibition in vivo at 50 mg/kg in the series with Mus musculus [2] was found to be 37%.
The compound `CC(=O)Nc1cc(-c2c(-c3ccc(F)cc3)ncn2CCCN2CCOCC2)ncn1` displayed a concentration for half-maximal inhibition (IC50) on MAP kinase p38 of 3.5 µM. Further, 50 mg/kg produced 21% inhibition in vivo in the series with Mus musculus [2].
For `CC(=O)Nc1nccc(-c2c(-c3ccc(F)cc3)ncn2CCCN2CCOCC2)n1` the same measures were 0.46 µM and 12%.
`Nc1cc(-c2c(-c3ccc(F)cc3)ncn2CCCN2CCOCC2)ncn1` gave a half-inhibitory concentration (IC50) against MAP kinase p38 above 17 µM.
At MAP kinase p38, `Oc1nccc(-c2c(-c3ccc(F)cc3)ncn2CCCN2CCOCC2)n1` had an IC50 of 5.5 µM. For the same compound, in the series with Mus musculus [2], 50 mg/kg produced 33% inhibition in vivo.
On CYP2D6, `Fc1ccc(-c2ncn(CCCN3CCOCC3)c2-c2ccncc2)cc1` [SB-210313] registered an inhibition at 10 µM of 86%. The compound also came in with a 50% effective dose (ED50) in the series filed under Mus musculus [1] of 42 mg/kg.
